Measured values taken from patent publication US4835156A, “Vasodilatory dihydrodibenzocycloheptyliden-ethyl piperazine derivatives and process for the preparation of these compounds” (Sociedad Espanola De Especialidades Terepeuticas, S.A., priority 1983, dated 1989).

Key:
Rat hind-quarters = assay: Vasodilatory activity, isolated rat hind-quarters (antagonism of vasoconstriction by hyperkalaemic Tyrode solution); settings: crosses relative to standard drugs cinnarizine and flunarizine;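 further: four crosses equal an effect comparable to the standard drug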
Description: (§1) The significance of the symbols is as follows:
In order to test the vasodilatory activity, the first trial employs the technique of the isolated rat hind-quarters (Table 2), which involves antagonizing the vasoconstrictive effect of perfusion of hyperkalaemic Tyrode solution, according to the method of F. N. Fastier and F. H. Smirk (J. Pharm. Exp. Therap. 89, […] (1947)), and then calculating for the products which show the greatest activity, the ED30, that is the dose which produces a 30% vasodilatory activity with respect to the basic vasoconstriction.

[1] = test system: Rabbit cerebral territory; assay: Vasodilation in perfused rabbit cerebral territory (variation in perfusion pressure); assay type: in vivo; settings: for Vasodilatory Index: % vasodilation multiplied by duration of action; for Vasodilatory Activity (Rabbit cerebral territory) Evaluation: crosses relative to standard cinnarizine;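 on Vasodilatory Activity (Rabbit cerebral territory) Evaluation: four crosses equal an effect comparable to the standard drug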
Procedure: as §1
In a further trial, the vasodilatory activity is evaluated by the technique of vasodilation in perfused rabbit cerebral territory as described by P. Vaupel and H. Hutten (Arzneim. Forsch./Drug Res. 30(I), 598-602 (1980)), calculating the variation in perfusion pressure after treatment (Table 3).
Table 3 employs the same conventional signs based on crosses, with the same relative significance as in Table 2.

[2] = Toxicity, indicative LD50, intraperitoneal; settings: mouse, in vivo, ip, Swiss mice, 7 days post-administration
Procedure: Table 4 sets forth the results of the indicative LD50 for the most representative of the compounds according to the present invention.
The compounds are administered by the intraperitoneal route to Swiss mice, after which the toxic effects are observed, and the mortality rate and the LD50 7 days post-administration are calculated.

## C(CN1CCN(Cc2ccc3c(c2)OCO3)CC1)=C1c2ccccc2CCc2ccccc21 [WAS-4234]
Rat hind-quarters
  Vasodilatory Activity (Rat hind-quarters) Evaluation: 0
[1]
  Vasodilatory Index: 0 mm^2
  Vasodilatory Activity (Rabbit cerebral territory) Evaluation: 0
[2]
  LD50 at 168 h: 600 mg/kg

## O=C(C=CCN1CCN(CC=C2c3ccccc3CCc3ccccc32)CC1)c1ccccc1 [WAS-4605]
Rat hind-quarters
  Vasodilatory Activity (Rat hind-quarters) Evaluation: ++++
[1]
  Vasodilatory Index: 420.9 mm^2
  Vasodilatory Activity (Rabbit cerebral territory) Evaluation: ++++
[2]
  LD50 at 168 h: 115 mg/kg

## Fc1ccc(C(c2ccc(F)cc2)N2CCN(C/C=C/c3ccccc3)CC2)cc1 [Flunarizine, reference compound]
Rat hind-quarters
  Vasodilatory Activity (Rat hind-quarters) Evaluation: ++++

## C(CN1CCN(Cc2ccncc2)CC1)=C1c2ccccc2CCc2ccccc21 [WAS-4220]
Rat hind-quarters
  Vasodilatory Activity (Rat hind-quarters) Evaluation: 0
[1]
  Vasodilatory Index: 1159.2 mm^2
  Vasodilatory Activity (Rabbit cerebral territory) Evaluation: ++++
[2]
  LD50 at 168 h: 185 mg/kg

## O=C(CN1CCN(CC=C2c3ccccc3CCc3ccccc32)CC1)NC12CC3CC(CC(C3)C1)C2 [WAS-4239]
Rat hind-quarters
  Vasodilatory Activity (Rat hind-quarters) Evaluation: ++
[1]
  Vasodilatory Index: 0 mm^2
  Vasodilatory Activity (Rabbit cerebral territory) Evaluation: 0
[2]
  LD50 at 168 h: 340 mg/kg

## O=C(CN1CCN(CC=C2c3ccccc3CCc3ccccc32)CC1)NC(=O)NCN1CCOCC1 [WAS-4601]
Rat hind-quarters
  Vasodilatory Activity (Rat hind-quarters) Evaluation: ++++
[1]
  Vasodilatory Index: 180.8 mm^2
  Vasodilatory Activity (Rabbit cerebral territory) Evaluation: +
[2]
  LD50 at 168 h: 125 mg/kg

## C(CN1CCN(Cc2ccccc2)CC1)=C1c2ccccc2CCc2ccccc21 [WAS-4206, N-benzyl-N'-2-(10,11-dihydrodibenzo-(a,d)-cyclohept-5-yliden)-ethyl piperazine]
Rat hind-quarters
  Vasodilatory Activity (Rat hind-quarters) Evaluation: ++++
[1]
  Vasodilatory Index: 285.3 mm^2
  Vasodilatory Activity (Rabbit cerebral territory) Evaluation: ++
[2]
  LD50 at 168 h: 880 mg/kg

## COC(=O)c1cc(CN2CCN(CC=C3c4ccccc4CCc4ccccc43)CC2)ccc1O [WAS-4604]
Rat hind-quarters
  Vasodilatory Activity (Rat hind-quarters) Evaluation: +
[1]
  Vasodilatory Index: 20.0 mm^2
  Vasodilatory Activity (Rabbit cerebral territory) Evaluation: 0
[2]
  LD50 at 168 h: 900 mg/kg

## C(CN1CCN(Cc2ccco2)CC1)=C1c2ccccc2CCc2ccccc21 [WAS-4221]
Rat hind-quarters
  Vasodilatory Activity (Rat hind-quarters) Evaluation: 0
[1]
  Vasodilatory Index: 321.4 mm^2
  Vasodilatory Activity (Rabbit cerebral territory) Evaluation: +++
[2]
  LD50 at 168 h: 185 mg/kg

## C(CN1CCN(Cc2ccccn2)CC1)=C1c2ccccc2CCc2ccccc21 [WAS-4232]
Rat hind-quarters
  Vasodilatory Activity (Rat hind-quarters) Evaluation: ++
[1]
  Vasodilatory Index: 46.8 mm^2
  Vasodilatory Activity (Rabbit cerebral territory) Evaluation: 0
[2]
  LD50 at 168 h: 115 mg/kg

## CCOC(=O)CN1CCN(CC=C2c3ccccc3CCc3ccccc32)CC1 [WAS-4231]
Rat hind-quarters
  Vasodilatory Activity (Rat hind-quarters) Evaluation: ++
[1]
  Vasodilatory Index: 0 mm^2
  Vasodilatory Activity (Rabbit cerebral territory) Evaluation: 0
[2]
  LD50 at 168 h: 175 mg/kg

## OCCN1CCN(CC=C2c3ccccc3CCc3ccccc32)CC1 [WAS-4229]
Rat hind-quarters
  Vasodilatory Activity (Rat hind-quarters) Evaluation: 0
[1]
  Vasodilatory Index: 55.6 mm^2
  Vasodilatory Activity (Rabbit cerebral territory) Evaluation: 0
[2]
  LD50 at 168 h: 115 mg/kg

## C(=Cc1ccccc1)CN1CCN(CC=C2c3ccccc3CCc3ccccc32)CC1 [WAS-4207]
Rat hind-quarters
  Vasodilatory Activity (Rat hind-quarters) Evaluation: ++++
[1]
  Vasodilatory Index: 16.2 mm^2
  Vasodilatory Activity (Rabbit cerebral territory) Evaluation: 0
[2]
  LD50 at 168 h: 925 mg/kg

## O=C(CN1CCN(CC=C2c3ccccc3CCc3ccccc32)CC1)N1CCCCC1 [WAS-4223]
Rat hind-quarters
  Vasodilatory Activity (Rat hind-quarters) Evaluation: 0
[1]
  Vasodilatory Index: 1133.6 mm^2
  Vasodilatory Activity (Rabbit cerebral territory) Evaluation: ++++
[2]
  LD50 at 168 h: 185 mg/kg

## C(CN1CCN(Cc2cccs2)CC1)=C1c2ccccc2CCc2ccccc21 [WAS-4226, N-2-(10,11-dihydrodibenzo-(a,d)-cyclohept-5-yliden)-ethyl-N'-(2-thenyl)-piperazine]
Rat hind-quarters
  Vasodilatory Activity (Rat hind-quarters) Evaluation: 0
[1]
  Vasodilatory Index: 74.0 mm^2
  Vasodilatory Activity (Rabbit cerebral territory) Evaluation: 0
[2]
  LD50 at 168 h: 385 mg/kg

## C(CN1CCN(Cc2cccnc2)CC1)=C1c2ccccc2CCc2ccccc21 [WAS-4227]
Rat hind-quarters
  Vasodilatory Activity (Rat hind-quarters) Evaluation: +
[1]
  Vasodilatory Index: 253.7 mm^2
  Vasodilatory Activity (Rabbit cerebral territory) Evaluation: ++
[2]
  LD50 at 168 h: 175 mg/kg

## O=C(O)CN1CCN(CC=C2c3ccccc3CCc3ccccc32)CC1 [WAS-4233]
Rat hind-quarters
  Vasodilatory Activity (Rat hind-quarters) Evaluation: 0
[1]
  Vasodilatory Index: 0 mm^2
  Vasodilatory Activity (Rabbit cerebral territory) Evaluation: 0
[2]
  LD50 at 168 h: 900 mg/kg

## O=C(CN1CCN(CC=C2c3ccccc3CCc3ccccc32)CC1)c1ccccc1 [WAS-4602]
Rat hind-quarters
  Vasodilatory Activity (Rat hind-quarters) Evaluation: 0
[1]
  Vasodilatory Index: 378.3 mm^2
  Vasodilatory Activity (Rabbit cerebral territory) Evaluation: +++
[2]
  LD50 at 168 h: 200 mg/kg

## O=C(CN1CCN(CC=C2c3ccccc3CCc3ccccc32)CC1)N1CCCC1 [WAS-4224]
Rat hind-quarters
  Vasodilatory Activity (Rat hind-quarters) Evaluation: 0
[1]
  Vasodilatory Index: 342.0 mm^2
  Vasodilatory Activity (Rabbit cerebral territory) Evaluation: +++
[2]
  LD50 at 168 h: 385 mg/kg

## C=CCN1CCN(CC=C2c3ccccc3CCc3ccccc32)CC1 [WAS-4225]
Rat hind-quarters
  Vasodilatory Activity (Rat hind-quarters) Evaluation: ++++
[1]
  Vasodilatory Index: 0 mm^2
  Vasodilatory Activity (Rabbit cerebral territory) Evaluation: 0
[2]
  LD50 at 168 h: 175 mg/kg

## O=C(CN1CCN(CC=C2c3ccccc3CCc3ccccc32)CC1)N1CCOCC1 [WAS-4222]
Rat hind-quarters
  Vasodilatory Activity (Rat hind-quarters) Evaluation: +
[1]
  Vasodilatory Index: 454.6 mm^2
  Vasodilatory Activity (Rabbit cerebral territory) Evaluation: ++++
[2]
  LD50 at 168 h: 185 mg/kg

## COC(=O)C=CCN1CCN(CC=C2c3ccccc3CCc3ccccc32)CC1 [WAS-4237]
Rat hind-quarters
  Vasodilatory Activity (Rat hind-quarters) Evaluation: ++++
[1]
  Vasodilatory Index: 19.6 mm^2
  Vasodilatory Activity (Rabbit cerebral territory) Evaluation: 0
[2]
  LD50 at 168 h: 3000 mg/kg
